Data on four compounds can be found in ChEMBL document CHEMBL1201862, “PubChem BioAssay data set” (2004).

Activity calls are given as the source filed them. Where only a bound is given, the exact number is not on record here.

The target in assay [1] is T1, G-protein coupled receptor 35 (Homo sapiens, UniProt Q9HC97). Nature of the assay: SAR analysis of Agonists of the GPR35 Receptor using an Image-Based Assay - Set 4. [Related pubchem assays (depositor defined):AID2013, AID2026]. The assay is classed as functional.
The target in assay [2] is T2, Cannabinoid receptor 1 (Homo sapiens, UniProt P21554). Kind of assay: SAR analysis of agonists of the Cannabinoid Receptor 1 using an Image-Based Assay - Set 4. [Related pubchem assays (depositor defined):AID2013, AID2026]. The assay is classed as functional.
The target of assay [3] is T1, G-protein coupled receptor 35. Nature of the assay: SAR analysis of Antagonists of the GPR35 Receptor using an Image-Based Assay - Set 6. [Related pubchem assays (depositor defined):AID2013, AID2026]. It counts as functional.
The target in assay [4] is T2, Cannabinoid receptor 1. Nature of the assay: SAR analysis of antagonists of the Cannabinoid Receptor 1 using an Image-Based Assay - Set 4. [Related pubchem assays (depositor defined):AID2013, AID2026]. The assay is classed as functional.
Assay [5] has as its target G-protein coupled receptor 55 (Homo sapiens, UniProt Q9Y2T6). Kind of assay: SAR Analysis of Selective Antagonists of GPR55 using an Image-Based Assay - Set 4. [Related pubchem assays (depositor defined):AID2013, AID2026]. It counts as functional.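 Also: antagonism of response to 5 µM lysophosphatidylinositol agonist.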
Assay [6] has as its target T3, Cannabinoid receptor 2 (Homo sapiens, UniProt P34972). Nature of the assay: SAR analysis of antagonists of the Cannabinoid Receptor 2 using an Image-Based Assay - Set 3. [Related pubchem assays (depositor defined):AID2013, AID2026]. It counts as functional.
The target in assay [7] is T3, Cannabinoid receptor 2. Kind of assay: SAR analysis of agonists of the Cannabinoid Receptor 2 using an Image-Based Assay - Set 3. [Related pubchem assays (depositor defined):AID2013, AID2026]. It counts as functional.
Assay [8] concerns the target T4, Probable nicotinate-nucleotide adenylyltransferase (Staphylococcus aureus (strain N315), UniProt P65502). It counts as functional, Staphylococcus aureus subsp. aureus N315.
Assay [9] has as its target T4, Probable nicotinate-nucleotide adenylyltransferase. The assay is classed as functional, Staphylococcus aureus subsp. aureus N315. The settings on record: read-out: IC50_Mean.
For assay [10], the system named is Streptococcus sp. 'group A'. Nature of the assay: Streptococcus pyogenes SK(-)GAS viability under kanamycin – luminescence, BacTiterGlo, confirmation, counter-screen for streptokinase expression inhibitor project, dose response (AID 1900). The assay is classed as functional, organism-based. (The purpose of a counterscreen is to sort out artefacts and off-target activity.)

Assay [11] is described as follows: cells. It counts as functional, cell-based.
Another assay deals with T5, Streptokinase A (Streptococcus pyogenes serotype M1, UniProt P10520).
T5 sequence (P10520 whole entry): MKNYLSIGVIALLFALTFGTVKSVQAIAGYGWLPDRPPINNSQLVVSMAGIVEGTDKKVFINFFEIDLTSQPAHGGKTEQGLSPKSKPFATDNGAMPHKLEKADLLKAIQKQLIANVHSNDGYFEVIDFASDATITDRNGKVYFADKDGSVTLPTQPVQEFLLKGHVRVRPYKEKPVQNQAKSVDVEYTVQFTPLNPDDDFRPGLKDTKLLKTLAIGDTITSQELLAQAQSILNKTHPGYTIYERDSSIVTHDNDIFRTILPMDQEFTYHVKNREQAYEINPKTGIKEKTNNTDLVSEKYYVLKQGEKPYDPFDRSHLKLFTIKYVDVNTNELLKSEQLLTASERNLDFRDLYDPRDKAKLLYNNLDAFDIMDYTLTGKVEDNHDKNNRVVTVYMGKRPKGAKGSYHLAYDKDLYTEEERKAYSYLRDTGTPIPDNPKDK
Nature of the assay: viability-normalized secreted streptokinase activity reduction – plasminogen activation absorbance, OD405, dose response (AID 1914).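 Also: secreted streptokinase activity via plasminogen activation per viability signal from cell pellet.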 It counts as functional, Streptococcus pyogenes M1 GAS.

The nature of assay [12]: Trypanosoma cruzi growth suppression in host cells – NIH3T3 host cells, beta-gal luminescence, confirmation (AID 2044).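 Also: intracellular parasites grown in NIH/3T3 mouse fibroblasts as host cells; luminescent beta-galactosidase reporter signal from transgenic T. cruzi replicating inside host cells; inhibitors lower the luminescence signal.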 The assay is classed as functional, cell-based.
Assay [13] can be described thus: cells. The assay is classed as functional, cell-based. The source holds these as a separate data set.
The nature of assay [14]: NIH3T3 cell viability loss – ATP luminescence, mouse fibroblasts, counter-screen, dose response (AID 2010).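 Also: cells exposed to compound for about 90 hours before reading.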 It counts as functional, cell-based.
For another assay, the system named is Streptococcus. Nature of the assay: GAS UMAA2166 growth inhibition – luminescence, BacTiterGlo, counter-screen for streptokinase expression inhibitor project, dose response (AID 1915).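 Also: potency for reduction of bacterial viability or growth.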 It counts as functional, organism-based.
Assay [15] deals with T6, Type-1 angiotensin II receptor (Homo sapiens, UniProt P30556).
T6 sequence (P30556 whole entry): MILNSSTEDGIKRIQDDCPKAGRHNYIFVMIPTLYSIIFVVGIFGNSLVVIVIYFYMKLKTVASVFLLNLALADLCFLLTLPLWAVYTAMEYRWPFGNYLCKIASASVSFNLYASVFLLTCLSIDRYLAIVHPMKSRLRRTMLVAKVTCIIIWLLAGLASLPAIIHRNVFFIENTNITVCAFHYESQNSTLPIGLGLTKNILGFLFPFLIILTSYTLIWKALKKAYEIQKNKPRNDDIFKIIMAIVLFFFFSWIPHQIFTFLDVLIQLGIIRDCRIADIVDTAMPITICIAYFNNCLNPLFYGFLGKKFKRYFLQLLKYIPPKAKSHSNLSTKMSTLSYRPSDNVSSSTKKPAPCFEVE
Nature of the assay: agonist activity at AGTR1 – cell-based, uHTS hits, selectivity assay for APJ receptor agonist project, dose response (AID 488865).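 Also: beta-arrestin recruitment to AT1 measured by enzyme fragment complementation luminescence.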 It counts as functional.

The test system of the next assay is INS1. Kind of assay: INS-1E survival protection against cytokine death – cell-based, luminescence, retest, dose response (AID 449756).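 Also: cell death triggered by IL-1 beta plus TNF-alpha plus IFN-gamma mixture; protective hits raise ATP signal compared with cytokine alone wells.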 The settings on record: Rattus norvegicus. It counts as functional.
Assay [16] in a line: reduction of Shn3 3'UTR-driven luciferase in osteoblasts – cell-based, Clone20 osteoblasts, firefly luciferase, cherry-picked, dose response (AID 624132).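 Also: firefly luciferase luminescence from reporter carrying the Shn3 3'UTR in osteoblasts.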 The assay is classed as functional.
A short description of assay [17]: loss of viability in HepG2 cells – cell-based, CellTiter-Glo, cherry-picked, cytotoxicity control for Shn3 inhibitor project, dose response (AID 624134). The assay is classed as functional. In general terms: In ATP-based viability assays light output follows the ATP content of the culture.
The nature of assay [18]: non-specific 3'UTR reporter inhibition in Clone20-Shn3RL – cell-based, Renilla luciferase, cherry-picked, counter-screen for Shn3 inhibitor project, dose response (AID 624133). It counts as functional.
Assay [19] is described as follows: viability of uninfected HEp-2 cells – cell-based, HTS, cytotoxicity control for RSV inhibitor project, dose response (AID 2410). The assay is classed as functional. The note with it: human respiratory syncytial virus.
For another assay, the target named is Ion channel NompC (Danio rerio, UniProt Q7T1G6). Nature of the assay: Dose response cell-based high-throughput screening assay for agonists of the transient receptor potential channel N1 (TRPN1). [Related pubchem assays (depositor defined):AID1424, AID1448]. The assay is classed as functional.
A further assay addresses T7, Mucolipin-3 (Homo sapiens, UniProt Q8TDD5).
T7 sequence (Q8TDD5 whole entry): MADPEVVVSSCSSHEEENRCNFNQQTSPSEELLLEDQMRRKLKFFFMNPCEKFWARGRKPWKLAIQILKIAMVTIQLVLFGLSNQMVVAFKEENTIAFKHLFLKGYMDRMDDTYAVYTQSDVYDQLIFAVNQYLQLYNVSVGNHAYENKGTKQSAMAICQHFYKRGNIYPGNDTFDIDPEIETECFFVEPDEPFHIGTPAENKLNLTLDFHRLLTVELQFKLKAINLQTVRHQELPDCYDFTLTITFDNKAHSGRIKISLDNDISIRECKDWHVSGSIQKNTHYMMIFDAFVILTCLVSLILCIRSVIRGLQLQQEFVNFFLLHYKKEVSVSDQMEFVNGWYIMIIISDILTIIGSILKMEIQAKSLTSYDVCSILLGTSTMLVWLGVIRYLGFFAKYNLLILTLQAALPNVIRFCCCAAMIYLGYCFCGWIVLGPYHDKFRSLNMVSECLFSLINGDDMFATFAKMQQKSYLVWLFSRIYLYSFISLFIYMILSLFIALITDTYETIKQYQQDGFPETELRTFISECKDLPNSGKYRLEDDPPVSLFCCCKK
Nature of the assay: Fluorescence counterscreen assay for […] agonists: dose response cell-based high-throughput screening assay to identify agonists of the transient receptor potential channel ML3 (TRPML3). [Related pubchem assays: 1424, 1448 ]. It counts as functional.

In assay [20] the test system is BJ. Kind of assay: BJ-TERT fibroblast viability loss – cell-based, RAS-independent, luminescence, dose response (AID 1933). The assay is classed as functional. The settings on record: Homo sapiens.
For assay [21], the system named is BJ. Kind of assay: cells. The assay is classed as functional, cell-based. The note with it: Homo sapiens.
A short description of assay [22]: microbe, parasite or virus in culture. It counts as functional. The settings on record: Mycobacterium tuberculosis.
Assay [23] has as its system BJ. Kind of assay: BJ-TERT-LT-ST fibroblast viability loss – cell-based, RAS-independent, luminescence, dose response (AID 1935).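 Also: BJ fibroblasts immortalized with TERT plus LT and ST oncogenes.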 The assay is classed as functional. The note with it: Homo sapiens.
A short description of assay [24]: DRD fibroblast viability loss – cell-based, non-viral oncogenic, luminescence, dose response (AID 1934). The assay is classed as functional. The note with it: Homo sapiens.
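For IC50 Mean in this document: confirmatory dose-response retesting of NadD inhibitor hits first found in an ultra-high-throughput screen.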

T4 sequence (P65502 whole entry): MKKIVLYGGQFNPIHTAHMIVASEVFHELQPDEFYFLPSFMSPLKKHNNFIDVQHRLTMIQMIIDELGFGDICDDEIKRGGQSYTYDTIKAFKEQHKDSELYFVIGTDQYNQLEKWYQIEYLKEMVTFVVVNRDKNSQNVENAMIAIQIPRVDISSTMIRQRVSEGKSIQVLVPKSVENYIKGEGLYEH
T1 sequence (Q9HC97 whole entry): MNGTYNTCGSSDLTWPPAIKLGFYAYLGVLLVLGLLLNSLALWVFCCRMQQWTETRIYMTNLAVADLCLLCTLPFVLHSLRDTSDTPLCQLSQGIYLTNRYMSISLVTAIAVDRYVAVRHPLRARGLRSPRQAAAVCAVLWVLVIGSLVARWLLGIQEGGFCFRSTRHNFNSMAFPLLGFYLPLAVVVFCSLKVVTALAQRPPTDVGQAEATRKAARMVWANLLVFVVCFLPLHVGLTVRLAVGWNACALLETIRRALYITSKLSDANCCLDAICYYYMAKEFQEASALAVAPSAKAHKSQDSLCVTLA
T3 sequence (P34972 whole entry): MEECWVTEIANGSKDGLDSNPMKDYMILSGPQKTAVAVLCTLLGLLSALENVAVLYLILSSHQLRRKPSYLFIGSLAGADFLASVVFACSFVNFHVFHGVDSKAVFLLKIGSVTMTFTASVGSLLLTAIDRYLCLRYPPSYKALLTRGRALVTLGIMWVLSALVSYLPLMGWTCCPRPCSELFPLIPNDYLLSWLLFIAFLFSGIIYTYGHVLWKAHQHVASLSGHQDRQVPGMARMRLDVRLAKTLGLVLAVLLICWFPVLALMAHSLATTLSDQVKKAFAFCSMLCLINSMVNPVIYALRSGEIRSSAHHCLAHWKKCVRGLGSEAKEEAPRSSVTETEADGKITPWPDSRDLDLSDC
T2 sequence (P21554 whole entry): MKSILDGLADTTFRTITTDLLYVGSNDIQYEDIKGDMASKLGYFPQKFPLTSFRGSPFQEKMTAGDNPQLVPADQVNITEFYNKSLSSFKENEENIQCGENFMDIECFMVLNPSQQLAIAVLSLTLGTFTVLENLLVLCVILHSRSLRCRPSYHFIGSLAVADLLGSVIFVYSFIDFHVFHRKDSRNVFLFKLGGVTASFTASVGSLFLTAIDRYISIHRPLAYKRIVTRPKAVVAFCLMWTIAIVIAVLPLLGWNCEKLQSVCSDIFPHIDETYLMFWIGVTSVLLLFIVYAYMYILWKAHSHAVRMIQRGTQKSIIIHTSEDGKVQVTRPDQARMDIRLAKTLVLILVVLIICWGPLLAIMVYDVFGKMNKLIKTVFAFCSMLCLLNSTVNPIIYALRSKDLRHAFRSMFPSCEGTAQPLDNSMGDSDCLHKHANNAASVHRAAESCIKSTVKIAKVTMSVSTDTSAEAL
Ion channel NompC, sequence (Q7T1G6 whole entry): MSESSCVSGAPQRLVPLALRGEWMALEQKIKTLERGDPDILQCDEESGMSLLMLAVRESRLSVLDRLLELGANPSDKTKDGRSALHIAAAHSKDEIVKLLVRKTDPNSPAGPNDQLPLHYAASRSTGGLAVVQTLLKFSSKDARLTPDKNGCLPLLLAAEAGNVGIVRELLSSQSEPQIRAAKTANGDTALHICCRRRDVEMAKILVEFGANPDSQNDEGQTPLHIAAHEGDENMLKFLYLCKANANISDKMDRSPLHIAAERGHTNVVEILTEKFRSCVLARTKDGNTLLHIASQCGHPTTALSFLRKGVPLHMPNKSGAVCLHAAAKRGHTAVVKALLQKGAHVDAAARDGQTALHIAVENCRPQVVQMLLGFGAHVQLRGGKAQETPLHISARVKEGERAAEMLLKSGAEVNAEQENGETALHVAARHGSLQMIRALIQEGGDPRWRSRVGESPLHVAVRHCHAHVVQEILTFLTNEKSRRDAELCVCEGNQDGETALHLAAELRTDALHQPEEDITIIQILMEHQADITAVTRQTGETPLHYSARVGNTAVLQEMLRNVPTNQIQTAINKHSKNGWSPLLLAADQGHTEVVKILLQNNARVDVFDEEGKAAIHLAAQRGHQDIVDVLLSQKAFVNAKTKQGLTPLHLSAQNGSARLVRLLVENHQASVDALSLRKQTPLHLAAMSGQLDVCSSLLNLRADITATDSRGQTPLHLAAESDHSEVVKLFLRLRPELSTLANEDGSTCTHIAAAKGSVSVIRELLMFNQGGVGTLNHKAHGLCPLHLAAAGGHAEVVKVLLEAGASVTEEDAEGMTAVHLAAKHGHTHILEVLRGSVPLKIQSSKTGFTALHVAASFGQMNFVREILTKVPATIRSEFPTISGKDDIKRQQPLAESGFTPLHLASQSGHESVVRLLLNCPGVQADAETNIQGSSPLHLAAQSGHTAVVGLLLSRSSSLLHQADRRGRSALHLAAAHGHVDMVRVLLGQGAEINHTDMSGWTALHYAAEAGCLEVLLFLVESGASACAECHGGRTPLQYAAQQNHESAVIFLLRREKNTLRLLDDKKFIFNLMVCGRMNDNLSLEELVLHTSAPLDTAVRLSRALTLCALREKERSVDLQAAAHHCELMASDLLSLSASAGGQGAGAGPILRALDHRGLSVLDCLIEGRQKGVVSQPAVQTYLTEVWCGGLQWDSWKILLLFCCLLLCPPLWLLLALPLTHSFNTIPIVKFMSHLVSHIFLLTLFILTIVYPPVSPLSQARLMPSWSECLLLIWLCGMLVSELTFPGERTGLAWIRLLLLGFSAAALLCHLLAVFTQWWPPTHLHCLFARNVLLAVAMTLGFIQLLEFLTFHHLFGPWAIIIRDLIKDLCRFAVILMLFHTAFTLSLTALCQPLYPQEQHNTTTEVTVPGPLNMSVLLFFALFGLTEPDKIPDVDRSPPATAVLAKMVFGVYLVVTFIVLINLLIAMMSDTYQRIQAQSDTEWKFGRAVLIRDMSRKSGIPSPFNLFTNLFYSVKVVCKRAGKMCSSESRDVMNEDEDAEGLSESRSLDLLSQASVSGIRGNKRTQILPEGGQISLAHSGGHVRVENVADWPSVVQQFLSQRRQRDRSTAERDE
G-protein coupled receptor 55, sequence (Q9Y2T6 whole entry): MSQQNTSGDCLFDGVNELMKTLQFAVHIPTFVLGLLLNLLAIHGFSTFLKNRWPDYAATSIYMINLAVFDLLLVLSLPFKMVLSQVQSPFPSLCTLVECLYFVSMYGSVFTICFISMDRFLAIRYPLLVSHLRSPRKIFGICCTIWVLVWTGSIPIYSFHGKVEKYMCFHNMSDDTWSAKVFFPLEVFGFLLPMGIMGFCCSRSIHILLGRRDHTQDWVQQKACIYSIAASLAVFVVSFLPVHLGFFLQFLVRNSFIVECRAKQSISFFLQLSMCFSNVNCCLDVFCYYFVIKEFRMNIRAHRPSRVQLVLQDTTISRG

Usually EC50 stands for the concentration at which the effect is half-maximal. As for `O=C(Nc1ccc(S(=O)(=O)Nc2nccs2)cc1)c1cc(-c2ccccc2)nc2ccccc12`, the EC50 (in [1]; on Cannabinoid receptor 1 [2]; at Cannabinoid receptor 2 [7]) was > 32 µM (inactive) each time. In addition, the IC50 in assay [3] was > 32 µM (inactive); at Cannabinoid receptor 1 [4] it was 4.77 µM (active); in [5], 5.75 µM (active); on Cannabinoid receptor 2 [6] it was > 32 µM (inactive); in assay [8], 6.12 µM (active); in [9], 20 µM (active).

As a reminder, the AC50 is the midpoint of the concentration-response curve, whichever way the signal moves. `Cc1cc(C)c2nc(NNC(=O)c3ccc(S(=O)(=O)N4CCc5ccccc5C4)cc3)sc2c1`: the half-maximal effective concentration (EC50) was 0.458 µM (active) in assay [10]; 7.06 µM (active) in the assay “cells [11]”; > 150 µM (not active) on Streptokinase A; 0.661 µM (active) in assay [12]; > 350 µM (not active) in “cells [13]”; < 6 µM (inconclusive) in assay [14]. In addition, the figures for the concentration for a half-maximal effect (EC50) (in the assay on Streptococcus; in assay [15]) were 61.5 µM (inconclusive) and > 100 µM (inactive), respectively. The concentration at half-maximal activity (AC50) in the assay on INS1 is 2.19 µM (active); in assay [16] it was 1.98 µM (active); in assay [17], 2.91 µM (active); in assay [18], 3.35 µM (active). Also, the IC50 in [8] is 7.18 µM (active); in [9] it was 38.1 µM (active).

For `COc1ccccc1CC(=O)Nc1ccc([N+](=O)[O-])cc1O`, the CC50 in assay [19] was 27.7 µM (active). Moreover, the EC50 at Ion channel NompC is > 29.9 µM (inactive); on Mucolipin-3, > 29.9 µM (not active).

As to `CCN(CC)c1ccc(/C=C2\SC(=O)N(C(C)C)C2=O)o1`, the EC50 in the assay on BJ [20] is 11.7 µM (active); in the assay on BJ [21], 20.5 µM (active); on Ion channel NompC it was > 9.97 µM (inactive); in assay [12], 2.09 µM (active); at Mucolipin-3, > 9.97 µM (not active); in assay [14] it was 18.4 µM (active). Besides, the half-maximal effective concentration (EC50) in the assay on BJ [23] was > 75 µM (inconclusive); in assay [24], 35.7 µM (active). Further, the CC50 in [22] was 38.7 µM (active).
